Publication PMC3466269, “A Comprehensive Strategy to Discover Inhibitors of the Translesion Synthesis DNA Polymerase κ” (PLoS ONE, 2012)

Columns and labels:
Human pol ι = molecular target: T1, Human pol ι (Homo sapiens, UniProt Q9UNA4); test: Radioactive gel-based primer extension assay on non-damaged DNA, pol ι; type: biochemical; details: average ± standard error, three experiments
T1 construct: purchased Enzymax Inc. (Lexington, KY)
T1 sequence (Q9UNA4 1-740): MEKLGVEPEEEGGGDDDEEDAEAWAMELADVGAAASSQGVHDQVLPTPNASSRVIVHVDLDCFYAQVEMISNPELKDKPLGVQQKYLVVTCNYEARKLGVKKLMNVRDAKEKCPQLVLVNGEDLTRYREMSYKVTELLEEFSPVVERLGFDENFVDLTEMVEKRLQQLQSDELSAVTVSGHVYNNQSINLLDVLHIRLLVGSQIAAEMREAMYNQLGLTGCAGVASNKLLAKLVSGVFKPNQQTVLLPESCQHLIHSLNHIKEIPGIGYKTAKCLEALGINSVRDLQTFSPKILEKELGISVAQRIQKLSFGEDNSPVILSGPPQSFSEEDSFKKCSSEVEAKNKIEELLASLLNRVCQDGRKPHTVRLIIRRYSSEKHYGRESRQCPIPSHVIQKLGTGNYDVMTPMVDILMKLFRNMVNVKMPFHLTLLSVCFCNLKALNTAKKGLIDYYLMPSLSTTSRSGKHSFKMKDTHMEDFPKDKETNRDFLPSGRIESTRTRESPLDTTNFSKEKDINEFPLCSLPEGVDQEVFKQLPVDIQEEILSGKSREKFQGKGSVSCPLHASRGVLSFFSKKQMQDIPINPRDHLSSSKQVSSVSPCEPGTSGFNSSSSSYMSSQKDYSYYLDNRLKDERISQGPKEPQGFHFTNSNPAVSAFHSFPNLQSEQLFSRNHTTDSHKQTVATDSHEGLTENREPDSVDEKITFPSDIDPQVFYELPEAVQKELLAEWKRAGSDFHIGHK
Procedure: (§1) The reactions with pol κ, pol η, and pol ι were carried out in the buffers containing 25 mM Tris-HCl, pH 7.5, 8 mM MgCl2, 10% glycerol, 100 µg/mL bovine serum albumin, and 5 mM DTT. Buffers for pol δ reactions contained 40 mM Hepes-KOH, pH 6.8, 10% glycerol, 200 µg/mL bovine serum albumin, 1 mM DTT, and 8 mM MgCl2. Final concentration of pol κ, pol η, pol ι, or pol δ in the reaction was 0.25 nM, 1 nM, 2.5 nM, or 4 nM, respectively. In this assay, a polymerase was preincubated with the compound for 15 min at room temperature. Primer extensions were then initiated by the addition of DNA substrate at final concentration of 5 nM and carried out for 30 min at room temperature in the presence of 100 µM dCTP and dGTP. The reactions were terminated by the addition of an equal volume of a dye solution containing 95% (v/v) formamide, 10 mM EDTA, 0.03% (w/v) xylene cyanol, and 0.03% (w/v) bromphenol blue. Reaction products were separated through a 15% acrylamide gel containing 8 M urea and visualized with a PhosphorImager screen. The ratio of extended primer to the total amount of primer was measured using ImageQuant 5.2 software to calculate the percentage of primer extended. IC50 values were determined by fitting the data to variable slope four-parameter equations using GraphPad Prism 5.

Human pol κ = molecular target: T2, Human pol κ (Homo sapiens, UniProt Q9UBT6); test: Radioactive gel-based primer extension (TLS) past acrolein-derived ring-opened reduced form of γ-HOPdG, pol κ; type: biochemical; details: primer extension, adducted DNA, 0.25 nM pol κ; average ± standard error, three experiments; read-out: gel: ring-opened reduced form of γ-HOPdG: IC50
T2 construct: Human pol κ (residues 19–526) was purified as previously reported; made in house
T2 sequence (Q9UBT6 19-526): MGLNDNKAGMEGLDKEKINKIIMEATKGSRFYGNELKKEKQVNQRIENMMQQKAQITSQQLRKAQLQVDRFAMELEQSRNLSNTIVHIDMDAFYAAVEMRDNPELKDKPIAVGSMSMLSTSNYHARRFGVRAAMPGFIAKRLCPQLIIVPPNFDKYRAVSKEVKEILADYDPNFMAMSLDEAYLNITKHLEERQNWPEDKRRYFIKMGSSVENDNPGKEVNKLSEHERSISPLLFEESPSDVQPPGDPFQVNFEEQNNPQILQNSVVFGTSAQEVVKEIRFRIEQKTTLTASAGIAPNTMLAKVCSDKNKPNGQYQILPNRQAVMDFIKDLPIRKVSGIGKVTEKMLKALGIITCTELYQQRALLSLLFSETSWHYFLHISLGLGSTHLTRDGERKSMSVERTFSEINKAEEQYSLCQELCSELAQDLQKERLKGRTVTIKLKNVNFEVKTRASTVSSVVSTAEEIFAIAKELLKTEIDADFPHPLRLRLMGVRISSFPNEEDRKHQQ
Procedure: as §1
The primary role of pol κ is to bypass DNA lesions. Therefore, it was critical to establish the assays to investigate the capability of these compounds to inhibit lesion bypass activity of pol κ. Radioactive gel-based primer extension reactions were carried out using a DNA substrate containing a site-specific acrolein-derived ring-opened reduced form of γ-HOPdG, a lesion that pol κ can efficiently bypass in vitro [13].

[1] = molecular target: T3, Human pol η (residues 1–437) (Homo sapiens, UniProt Q9Y253); test: Radioactive gel-based primer extension assay on non-damaged DNA, pol η; type: biochemical; details: average ± standard error, three experiments
T3 construct: Human pol η (residues1–437) was purified following the same procedures; made in house
T3 sequence (Q9Y253 1-437): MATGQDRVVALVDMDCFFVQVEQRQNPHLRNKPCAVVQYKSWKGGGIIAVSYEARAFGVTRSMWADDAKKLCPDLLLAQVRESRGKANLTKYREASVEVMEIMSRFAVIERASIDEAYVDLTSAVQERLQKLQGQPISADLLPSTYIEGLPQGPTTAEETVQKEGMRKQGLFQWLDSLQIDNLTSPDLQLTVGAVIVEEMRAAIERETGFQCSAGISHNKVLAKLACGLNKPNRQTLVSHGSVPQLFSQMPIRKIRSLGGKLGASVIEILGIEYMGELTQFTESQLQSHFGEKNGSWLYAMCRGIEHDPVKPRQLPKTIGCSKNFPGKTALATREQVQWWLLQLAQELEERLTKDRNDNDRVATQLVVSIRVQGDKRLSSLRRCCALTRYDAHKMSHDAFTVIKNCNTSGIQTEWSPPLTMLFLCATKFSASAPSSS
Procedure: as §1, with “Prism 5. […]” for “Prism 5.”

XP30RO cells (XP-V) = test: Cell survival assay, crystal violet, with or without UV
Procedure: Cell survival assays were carried out using crystal violet assays and CellTiter-Glo Luminescent Cell Viability Assays. In crystal violet assays, XP30RO cells were plated into clear 96-well plates at a density of 8000 cells/mL and incubated overnight at 37°C, 5% CO2. The cells were treated with (1) inhibitor alone for 6 h or (2) UV alone or (3) inhibitor alone for 6 h followed by UV irradiation. After 2 days, cells were fixed with 4% paraformaldehyde and stained with 0.5% crystal violet dye. The dye was dissolved in 10% acetic acid and absorbance measurement was taken at OD595 nm with Infinite® M200 plate reader (Tecan, Durham, NC). For the CellTiter-Glo Luminescent Cell Viability Assays, the same procedures as crystal violet assays were used except that white/clear bottom 96-well plates were used and cell viability was measured following manufacturer's recommendations.
XP30RO cells were treated with 24 µM of candesartan cilexetil alone, UV alone at 1.5 J/m^2, 4.5 J/m^2, or 7.5 J/m^2, or in combination. Percent survival was calculated by normalizing the data using the cell survival of untreated cells. The data were obtained from three independent experiments.

IC50 (Human pol κ): 11 ± 1.5 µM
Structure (SMILES): CCOc1nc2cccc(C(=O)OC(C)OC(=O)OC3CCCCC3)c2n1Cc1ccc(-c2ccccc2-c2nnn[nH]2)cc1 (centres unmarked) [candesartan cilexetil, Candesartan cilexetil]
IC50 (Human pol ι): 6.2 ± 0.6 µM
IC50 [1]: 11.2 ± 1 µM
Cell survival with compound alone (XP30RO cells (XP-V); 24 µM, no UV): cell survival was not altered
Effect on UV-induced cytotoxicity (XP30RO cells (XP-V); crystal violet, inhibitor 6 h then UV 1.5, 4.5 or 7.5 J/m^2, candesartan cilexetil 24 µM): potentiated the cytotoxicity of UV at higher UV doses
